How the values were obtained:
[1] = system: herpes simplex type I (VPG-I/Leningrad/248/88); experiment: Activity on herpes simplex virus: cytopathic action of the virus on Vero cells; assay type: cell-based; conditions: 36 hours; for number of cells in 100 fields (unchanged cells): cell control 12000
Method: (§1) The antiviral activity was studied relative to the virus herpes simplex type I (VPG-I/Leningrad/248/88) by a standard method. The virus was grown on a reinoculated Vero cell culture obtained from the cell culture bank of the Institute of Cytology of the Russian Academy of Sciences.
(§2) To cells grown on medium RPMI-1640 with 10% calf serum and placed in the wells of a 96-well plate, the virus was added to give a final concentration of 10 particles/ml and the claimed compounds dissolved in DMSO were added to give a final concentrations of 100, 10, and 1 mg/l. We used 5 individual wells for every concentration tested. The plate was incubated for 60 min at 38° C. in a CO2 incubator. After incubation the virus was removed and new medium was added that contained the claimed compounds in the test concentrations.
The results were evaluated according to the existence of a cytopathic action of the virus on the cells after 36 hours of incubation at 38° C. in the CO2 incubator.
The following controls were used in the experiment:
3. Control of antiviral activity of an antiviral preparation—acylcovir.
To access the cytopathic effect of the virus, we counted the number of unchanged cells in 100 fields formed by a specialized grid on the eyepiece of the inversion microscope.

[2] = system: primary culture of human lymphocytes; experiment: Interferon-inducing activity in primary culture of human lymphocytes (immunoenzyme IFN determination); assay type: cell-based; set-up: unit of the concentration uncertain; conditions: 24 hours of incubation
Method: Interferon synthesis induction by the claimed preparations was conducted on a primary culture of human lymphocytes (the cells in the human body are the main producers of interferon). To obtain a culture of the lymphocytes we used fresh blood (12 hours after collection) from healthy […] (not from the second group).
The lymphocyte concentration was determined after staining with methyl blue and the number of cells in the Goryaev chamber was calculated. […] The final concentration of the lymphocytes in the induction mixture was 3·10^6 cells/ml. The following controls were processed in parallel with the test samples:
The control and the experimental samples were incubated for 24 hours at 37° C. Following incubation the samples were centrifuged at 2000 g to settle out the cellular elements and the INF-containing supernatant was taken from the samples and analyzed for INF content. The cell residue was resuspended in the same volume of nutrient medium, stained with a vital dye—trypan blue—and the number of cells in the Goryaev chamber was calculated (as described above) to determine the cytotoxic activity of the preparations.
For the quantitative determination of INF in the control and experimental samples we used the ProCon IF2 Plus immunoenzyme test system sold by TOO Proteinovyi Kontur. To determine the quantity of interferon s in the sample we used a solid-phase immunoenzyme method utilizing horseradish peroxidase as the enzyme indicator. The activity of the bound peroxidase was measured using an automated photometer at a wavelength of 450 nm for the microplanchets with a microprocessor. […] On the basis of the results obtained we plotted a calibration curve that allowed us to obtain data expressed in International Units (IU) from the microprocessor of the automated photometer. The results of the analysis are expressed in IU of activity of INF per ml in the given induction system containing 3·10^6 lymphocytes/ml. Every experimental and control point was studied in 4 parallel runs.
The results obtained were analyzed statistically using the t-test and the confidence interval at p=0.05 was calculated. Analysis of the convergence of the results of the parallel tests were performed.

C. trachomatis D323 = experiment: Activity on Chlamydia trachomatis in McCoy and L929 cell cultures; assay type: cell-based; conditions: 48 hours; for number of cells in 100 fields (unchanged cells): cell control 8000, infected cell control 6400
Method: The antimicrobial activity of the claimed compounds was studied on C. trachomatis […]-a standard strain from the collection of the Department of Microbiology of the Pavlov St.-Petersburg State University. This strain was isolated from a patient with […] urethritis. […] In the work reported here we used McCoy and L929 cell cultures obtained from the Institute of Cytology of the Russian Academy of Sciences. The cells were grown in flasks of neutral glass in RPMI-1640 medium with an addition of 10% fetal calf serum. The experiment was placed in glass (toxicity-free) flat-bottomed flasks and covered with glass. The cells were introduced into the medium in a final concentration of 1·10 cells/ml. […] The sample was centrifuged at 2400 g for 60 min at room temperature and incubated at 37° C. for 2 hours. […] A parallel series of samples was run using medium without the cycloheximide in order to avoid its influence on the test substances. The samples were incubated for 48 hours in a CO2 incubator. […] The results were evaluated from the detection of chlamydia cytoplasmatic inclusion by an immunoenzyme method (MicroTrac Chlamydia trachomatis Direct Specimen Test) and from chlamydia antigens using CylaMonoScreen (Russian-British Joint Venture, 66 Regent's Park Road, London NW 1 7SX).

[3] = Acute toxicity (LD50) in mice; assay type: in vivo; conditions: non-linebred white, mouse, in vivo, iv; mice 18-20 g; by mouth or intravenously; observation period 14 days
Method: Acute toxicity was determined on non-linebred white mice weighing 18-20 g. Emulsions of certain of the claimed compounds were prepared in a range of concentrations: 1500, 700, 500, 100, 20 and 5 μg/kg. Five animals were used to study each specific concentration of a compound. The preparation was administered once a day by mouth or intravenously. The observation period was 14 days On days 1, 8 and 15 the animals in every group were weighed. For a control we used animals who received the emulsion without the test compounds.
All animals, both that died in the course of the experiment and those that survived to the end of the experiment, were opened to allow macroscopic examination of internal organs.
In the course of the experiment no loss of weight was observed or any change in behavior or external appearance, nor was there any loss of life. Based on the results of the macroscopic examination of internal organs of the animals in the test and the control groups, no pathological findings were made (Table 7).

[4] = system: herpes simplex type I (VPG-I/Leningrad/248/88); experiment: Activity on herpes simplex virus: cytopathic action of the virus on Vero cells; assay type: cell-based; conditions: 50 mg/l, 36 hours
Vero cell culture = experiment: Control of compounds (toxicity of compounds) in the herpes experiment; assay type: cell-based; conditions: Vero cells
Method: as §1
as §2, with “the claimed compounds dissolved in DMSO were added to give a final concentrations of 100, 10, and 1 mg/l.” left out
4. Control of compounds (toxicity of compounds).

[5] = system: McCoy and L929 cell cultures; experiment: Control of the test compounds on toxicity relative to cell cultures in the chlamydia experiment; assay type: cell-based
Method: In the work reported here we used McCoy and L929 cell cultures obtained from the Institute of Cytology of the Russian Academy of Sciences. The cells were grown in flasks of neutral glass in RPMI-1640 medium with an addition of 10% fetal calf serum. The experiment was placed in glass (toxicity-free) flat-bottomed flasks and covered with glass. The cells were introduced into the medium in a final concentration of 1·10 cells/ml. After a monolayer was obtained, standard infectious doses of chlamydia that had been maintained in a frozen state at −70° C. were added to test tubes. […] The sample was centrifuged at 2400 g for 60 min at room temperature and incubated at 37° C. for 2 hours. […] A parallel series of samples was run using medium without the cycloheximide in order to avoid its influence on the test substances. The samples were incubated for 48 hours in a CO2 incubator.

Compound	percent protection of the cells against the virus compared to the cell culture control ([1]; 10 mg/l) [%]	number of cells in 100 fields (unchanged cells) ([1]; 10 mg/l)	percent protection of the cells against the virus compared to the cell culture control ([1]; 100 mg/l) [%]	number of cells in 100 fields (unchanged cells) ([1]; 100 mg/l)	Interferon-inducing activity of the drug; content of INF in induction mixture ([2]; 1 (unit uncertain)) [IU/3 · 10^4 lymp/ml]	Interferon-inducing activity of the drug; content of INF in induction mixture ([2]; 10 (unit uncertain)) [IU/3 · 10^4 lymp/ml]	Interferon-inducing activity of the drug; content of INF in induction mixture ([2]; 100 (unit uncertain)) [IU/3 · 10^4 lymp/ml]	percent protection of the cells against infection (C. trachomatis D323; 30 mg/l) [%]	number of cells in 100 fields (unchanged cells) (C. trachomatis D323; 30 mg/l)	percent protection of the cells against infection (C. trachomatis D323; 100 mg/l) [%]	number of cells in 100 fields (unchanged cells) (C. trachomatis D323; 100 mg/l)	LD50 at 14 days [3] [mg/kg]	percent protection of the cells against the virus compared to the cell culture control [4] [%]	number of cells in 100 fields (unchanged cells) ([4]; cell control 12000)	cytotoxicity of compound (Vero cell culture; 50 mg/l)	cytotoxicity of compound (Vero cell culture; 100 mg/l)	cytotoxicity of compound ([5]; 30 mg/l)	cytotoxicity of compound ([5]; 100 mg/l)
Nc1nc2c(ncn2COCCO)c(=O)[nH]1 [Acyclovir, reference compound]	80	9600	–	–	–	–	–	–	–	–	–	–	–	–	–	–	–	–
O=[N+]([O-])c1ccc(C2c3c(O)nc(O)nc3Oc3nc(O)nc(O)c32)cc1 [I, 2,4,6,8-Tetrahydroxy-5-(p-nitrophenyl)-5H-pyrano[2,3-d:6,5-d′]dipyrimidine]	60	7200	80	9600	8.0 ± 0.8	28.0 ± 1.5	80.0 ± 1.2	70	7520	80	7640	1600	70	8400	–	–	–	–
Clc1nc(Cl)c2c(n1)Oc1nc(Cl)nc(Cl)c1C2c1ccccc1 [II, 5-Phenyl-2,4,6,8-tetrachloro-5H-pyrano[2,3-d:6,5-d′]dipyrimidine]	–	–	–	–	2.0 ± 0.4	16.0 ± 0.8	40.0 ± 1.4	–	–	–	–	–	–	–	Cytotoxic	Cytotoxic	cytotoxic	cytotoxic
Oc1nc(O)c2c(n1)Oc1nc(O)nc(O)c1C2c1ccc(I)cc1 [III]	–	–	40	4800	56.5 ± 1.0	112.6 ± 2.0	243.2 ± 1.0	–	–	–	–	–	–	–	–	–	–	–

— patent publication US6340755B1, “5H-Pyrano[2,3-d: 6,5-d']dipyrimidine derivatives having an antibacterial, antiviral and immuno-modulating activity” (Natural Drug Sciences LLC, priority 2000, dated 2002)
